# Test results published in ChEMBL document CHEMBL1139234, “Optimization of monocarboxylate transporter 1 blockers through analysis and modulation of atropisomer interconversion properties” (J Med Chem, 2007).
# Assay: Solubility of the compound
# Assay type: physicochemical
# Conditions: not given
row,solubility,SMILES
1,500 µg/mL,CC(C)Cn1c(=O)n(C)c(=O)c2c(C(=O)N3CC[C@@H](O)C3)c(Cc3ccnc4ccccc34)sc21
2,2900 µg/mL,Cc1n[nH]c(C)c1Cc1sc2c(c1C(=O)N1C[C@H](O)CO1)c(=O)n(C)c(=O)n2CC(C)C

# Assay: physchem
# Conditions: octanol/water
row,logD,SMILES
1,2,CC(C)Cn1c(=O)n(C)c(=O)c2c(C(=O)N3CC[C@@H](O)C3)c(Cc3ccnc4ccc(F)cc34)sc21
2,3.2,CC(C)Cn1c(=O)n(C)c(=O)c2c(C(=O)N3C[C@H](O)CO3)c(Cc3ccccc3C(F)(F)F)sc21
3,1.8,CNc1nc2ccccc2n1Cc1sc2c(c1C(=O)N1C[C@H](O)CO1)c(=O)n(C)c(=O)n2CC(C)C
4,2.9,CC(C)Cn1c(=O)n(C)c(=O)c2c(C(=O)N3CC[C@@H](O)C3)c(Oc3cccc4ccccc34)sc21
5,1.1,Cc1n[nH]c(C)c1Cc1sc2c(c1C(=O)N1C[C@H](O)CO1)c(=O)n(C)c(=O)n2CC(C)C
6,2,CC(C)Cn1c(=O)n(C)c(=O)c2c(C(=O)N3C[C@H](O)CO3)c(Cc3c[nH]c4ncccc34)sc21
7,2.3,CON(C)C(=O)c1c(Cn2c(C)nc(Cl)c2Cl)sc2c1c(=O)n(C)c(=O)n2CC(C)C
8,2.6,CC(C)n1c(=O)n(C)c(=O)c2c(C(=O)N3CCS(=O)(=O)C3)c(Cc3ccccc3C(F)(F)F)sc21
